ChEMBL document CHEMBL5647700, “Crystal structure of an angiogenesis inhibitor bound to the FGF receptor tyrosine kinase domain” (EMBO J, 1998)

Legend:
[1] = Inhibition of PDGFR cytoplasmic domain (unknown origin) in presence of ATP; design: species or system Homo sapiens
[2] = target: Proto-oncogene tyrosine-protein kinase Src (Homo sapiens, UniProt P12931); assay: Inhibition of c-SRC (unknown origin) in presence of ATP
[3] = target: Dual specificity mitogen-activated protein kinase kinase; MEK1/2 (Homo sapiens, UniProt P36507+Q02750); assay: Inhibition of MEK (unknown origin) in presence of ATP; format: protein assay
[4] = Inhibition of PKCalpha/beta/gamma isotype mixtures (unknown origin) in presence of ATP; design: species or system Homo sapiens
[5] = target: Fibroblast growth factor receptor 1 (Mus musculus, UniProt P16092); assay: Inhibition of FGFR1 autophosphorylation in mouse NIH/3T3 cells assessed as reduction in aFGF and heparin-induced autophosphorylation incubated for 5 mins before stimulation for 5 mins with aFGF and heparin by SDS-PAGE and immunoblot method; format: cell-based
Chain of Fibroblast growth factor receptor 1 (P16092 whole entry): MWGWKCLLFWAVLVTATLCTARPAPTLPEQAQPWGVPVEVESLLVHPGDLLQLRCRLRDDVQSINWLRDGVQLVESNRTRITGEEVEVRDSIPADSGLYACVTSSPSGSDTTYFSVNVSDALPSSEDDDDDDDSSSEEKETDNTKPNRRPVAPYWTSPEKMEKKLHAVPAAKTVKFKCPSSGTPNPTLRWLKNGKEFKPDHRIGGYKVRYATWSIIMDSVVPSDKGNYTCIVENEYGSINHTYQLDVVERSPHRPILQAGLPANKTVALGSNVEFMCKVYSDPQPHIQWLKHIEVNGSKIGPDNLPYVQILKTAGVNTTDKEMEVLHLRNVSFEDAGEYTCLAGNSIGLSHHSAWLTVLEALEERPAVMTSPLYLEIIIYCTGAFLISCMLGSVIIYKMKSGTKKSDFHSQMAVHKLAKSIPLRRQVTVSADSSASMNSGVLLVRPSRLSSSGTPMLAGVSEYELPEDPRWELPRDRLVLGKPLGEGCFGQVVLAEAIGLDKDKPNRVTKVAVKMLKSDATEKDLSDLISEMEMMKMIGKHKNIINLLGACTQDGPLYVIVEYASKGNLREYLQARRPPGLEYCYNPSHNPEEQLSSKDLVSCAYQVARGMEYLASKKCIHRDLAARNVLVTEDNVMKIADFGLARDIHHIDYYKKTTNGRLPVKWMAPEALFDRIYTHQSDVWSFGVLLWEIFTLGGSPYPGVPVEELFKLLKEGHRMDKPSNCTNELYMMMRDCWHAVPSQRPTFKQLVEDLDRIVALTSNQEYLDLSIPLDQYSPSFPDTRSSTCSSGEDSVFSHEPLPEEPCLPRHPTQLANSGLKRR

[6] = Inhibition of VEGFR2 (unknown origin) expressed in mouse NIH/3T3 cells assessed as reduction in aFGF and heparin-induced autophosphorylation incubated for 5 mins before stimulation for 5 mins with aFGF and heparin by SDS-PAGE and immunoblot method; format: cell-based; settings: NIH3T3
Mus musculus [7] = assay: Inhibition of FGF-induced neovascularization in Swiss Webster mouse angiogenesis model at 1 mg/kg, ip starting 3 days prior to or on the day of pellet implantation and then daily until day 5 post-implantation by Corneal neovascularization assay; format: functional; settings: 192 h, time 8 day
Mus musculus [8] = assay: Inhibition of VEGF-induced neovascularization in Swiss Webster mouse angiogenesis model at 2 mg/kg, ip starting 3 days prior to or on the day of pellet implantation and then daily until day 5 post-implantation by Corneal neovascularization assay; format: functional; settings: 192 h, time 8 day
[9] = Toxicity in bFGF-induced Swiss Webster mouse angiogenesis model at 1 mg/kg, ip starting 3 days prior to or on the day of pellet implantation and then daily until day 5 post-implantation by Corneal neovascularization assay; format: organism-based; settings: in vivo, 192 h, time 8 day

Chain of Proto-oncogene tyrosine-protein kinase Src (P12931 2-536 limits assumed): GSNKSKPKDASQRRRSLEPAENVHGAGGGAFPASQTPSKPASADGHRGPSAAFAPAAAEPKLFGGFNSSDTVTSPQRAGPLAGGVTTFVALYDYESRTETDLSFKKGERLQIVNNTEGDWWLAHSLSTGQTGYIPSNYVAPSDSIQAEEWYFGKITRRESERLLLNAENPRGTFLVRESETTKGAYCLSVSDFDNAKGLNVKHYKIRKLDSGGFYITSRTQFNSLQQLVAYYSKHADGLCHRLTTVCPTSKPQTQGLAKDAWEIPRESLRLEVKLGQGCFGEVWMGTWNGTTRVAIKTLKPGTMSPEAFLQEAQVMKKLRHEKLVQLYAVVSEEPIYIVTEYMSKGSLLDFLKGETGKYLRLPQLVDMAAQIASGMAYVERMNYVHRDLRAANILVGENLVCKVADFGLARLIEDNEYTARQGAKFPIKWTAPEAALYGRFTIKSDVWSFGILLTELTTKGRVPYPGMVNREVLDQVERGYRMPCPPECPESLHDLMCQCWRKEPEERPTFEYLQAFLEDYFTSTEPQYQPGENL

CCN(CC)CCCCNc1ncc2cc(-c3cc(OC)cc(OC)c3)c(NC(=O)NC(C)(C)C)nc2n1 [PD-173074]
IC50 [1]: 17.6 µM | IC50 [2]: 19.8 µM | IC50 [3]: > 50 µM | IC50 [4]: > 50 µM | IC50 [5]: 0.001 µM | IC50 [6]: 0.1 µM | inhibition in vivo at 1 mg/kg (Mus musculus [7]): 86% | inhibition in vivo at 2 mg/kg (Mus musculus [8]): 81% | Activity [9]: Non-Toxic
